Assay results: the NIST ThermoML archive (doi:10.1016/j.jct.2016.10.047)
Numbers after ± are expanded uncertainties.

Experiment: heat capacity at constant pressure per volume; xn = mol fraction of the nth substance listed
Settings: 102.6 kPa, Liquid, DSC, x1 = 0.08

For `CCCCCCCC[n+]1ccn(C)c1.F[P-](F)(F)(F)(F)F` [1-octyl-3-methylimidazolium hexafluorophosphate] + CC(C)O, the heat capacity (306.1 K) was 2358000 ± 99000 J/K/m3, the heat capacity (306.31 K) was 2360000 ± 99000 J/K/m3 and the heat capacity (306.53 K) was 2376000 ± 100000 J/K/m3. The heat capacity (306.74 K) was 2371000 ± 100000 J/K/m3, the heat capacity (306.95 K) was 2378000 ± 100000 J/K/m3 and the heat capacity (307.16 K) was 2393000 ± 100000 J/K/m3. For the same molecule, the heat capacity (307.38 K) was 2371000 ± 100000 J/K/m3, the heat capacity (307.59 K) was 2387000 ± 100000 J/K/m3 and the heat capacity (307.8 K) was 2406000 ± 100000 J/K/m3. The heat capacity (308.01 K) was 2407000 ± 100000 J/K/m3, the heat capacity (308.23 K) was 2403000 ± 100000 J/K/m3 and the heat capacity (308.44 K) was 2417000 ± 100000 J/K/m3. The heat capacity (308.65 K) was 2426000 ± 100000 J/K/m3, the heat capacity (308.86 K) was 2437000 ± 100000 J/K/m3 and the heat capacity (309.07 K) was 2429000 ± 100000 J/K/m3. It also gave a heat capacity (309.29 K) of 2462000 ± 100000 J/K/m3, a heat capacity (309.5 K) of 2458000 ± 100000 J/K/m3 and a heat capacity (309.71 K) of 2492000 ± 110000 J/K/m3. For the same molecule, the heat capacity (309.92 K) was 2498000 ± 110000 J/K/m3, the heat capacity (310.14 K) was 2474000 ± 100000 J/K/m3 and the heat capacity (310.35 K) was 2486000 ± 110000 J/K/m3. It also gave a heat capacity (310.56 K) of 2543000 ± 110000 J/K/m3, a heat capacity (310.77 K) of 2578000 ± 120000 J/K/m3 and a heat capacity (310.99 K) of 2348000 ± 120000 J/K/m3. The heat capacity (311.2 K) was 2313000 ± 95000 J/K/m3, the heat capacity (311.41 K) was 2300000 ± 94000 J/K/m3 and the heat capacity (311.62 K) was 2301000 ± 94000 J/K/m3. It also gave a heat capacity (311.83 K) of 2289000 ± 94000 J/K/m3, a heat capacity (312.05 K) of 2291000 ± 94000 J/K/m3 and a heat capacity (312.26 K) of 2283000 ± 93000 J/K/m3. It also gave a heat capacity (312.47 K) of 2282000 ± 93000 J/K/m3, a heat capacity (312.68 K) of 2283000 ± 93000 J/K/m3 and a heat capacity (312.89 K) of 2268000 ± 92000 J/K/m3. For the same molecule, the heat capacity (313.11 K) was 2279000 ± 93000 J/K/m3, the heat capacity (313.32 K) was 2266000 ± 92000 J/K/m3 and the heat capacity (313.53 K) was 2277000 ± 93000 J/K/m3. For the same molecule, the heat capacity (313.74 K) was 2270000 ± 93000 J/K/m3, the heat capacity (313.96 K) was 2249000 ± 91000 J/K/m3 and the heat capacity (314.17 K) was 2265000 ± 92000 J/K/m3. It also gave a heat capacity (314.38 K) of 2249000 ± 91000 J/K/m3, a heat capacity (314.59 K) of 2263000 ± 92000 J/K/m3 and a heat capacity (314.81 K) of 2253000 ± 91000 J/K/m3. It also gave a heat capacity (315.02 K) of 2254000 ± 91000 J/K/m3, a heat capacity (315.23 K) of 2257000 ± 91000 J/K/m3 and a heat capacity (315.44 K) of 2255000 ± 91000 J/K/m3. The heat capacity (315.65 K) was 2262000 ± 91000 J/K/m3, the heat capacity (315.87 K) was 2264000 ± 91000 J/K/m3 and the heat capacity (316.08 K) was 2265000 ± 91000 J/K/m3. The heat capacity (316.29 K) was 2248000 ± 91000 J/K/m3, the heat capacity (316.5 K) was 2255000 ± 91000 J/K/m3 and the heat capacity (316.72 K) was 2243000 ± 91000 J/K/m3. The heat capacity (316.93 K) was 2245000 ± 91000 J/K/m3, the heat capacity (317.14 K) was 2256000 ± 91000 J/K/m3 and the heat capacity (317.35 K) was 2241000 ± 91000 J/K/m3. It also gave a heat capacity (317.57 K) of 2246000 ± 91000 J/K/m3, a heat capacity (317.78 K) of 2253000 ± 91000 J/K/m3 and a heat capacity (317.99 K) of 2242000 ± 91000 J/K/m3. The heat capacity (318.2 K) was 2249000 ± 91000 J/K/m3, the heat capacity (318.42 K) was 2245000 ± 91000 J/K/m3 and the heat capacity (318.63 K) was 2234000 ± 89000 J/K/m3. For the same molecule, the heat capacity (318.84 K) was 2249000 ± 91000 J/K/m3, the heat capacity (319.3 K) was 2241000 ± 88000 J/K/m3 and the heat capacity (319.64 K) was 2242000 ± 88000 J/K/m3. For the same molecule, the heat capacity (319.98 K) was 2241000 ± 88000 J/K/m3, the heat capacity (320.31 K) was 2240000 ± 88000 J/K/m3 and the heat capacity (320.65 K) was 2241000 ± 88000 J/K/m3. The heat capacity (320.99 K) was 2241000 ± 88000 J/K/m3, the heat capacity (321.33 K) was 2240000 ± 88000 J/K/m3 and the heat capacity (321.67 K) was 2240000 ± 88000 J/K/m3. For the same molecule, the heat capacity (322 K) was 2240000 ± 88000 J/K/m3, the heat capacity (322.34 K) was 2241000 ± 88000 J/K/m3 and the heat capacity (322.68 K) was 2240000 ± 88000 J/K/m3. The heat capacity (323.02 K) was 2240000 ± 88000 J/K/m3, the heat capacity (323.36 K) was 2240000 ± 88000 J/K/m3 and the heat capacity (323.69 K) was 2240000 ± 88000 J/K/m3. It also gave a heat capacity (324.03 K) of 2239000 ± 87000 J/K/m3, a heat capacity (324.37 K) of 2239000 ± 87000 J/K/m3 and a heat capacity (324.71 K) of 2239000 ± 87000 J/K/m3. The heat capacity (325.05 K) was 2240000 ± 87000 J/K/m3, the heat capacity (325.38 K) was 2240000 ± 87000 J/K/m3 and the heat capacity (325.72 K) was 2238000 ± 87000 J/K/m3. The heat capacity (326.06 K) was 2239000 ± 87000 J/K/m3, the heat capacity (326.4 K) was 2239000 ± 87000 J/K/m3 and the heat capacity (326.74 K) was 2240000 ± 87000 J/K/m3. For the same molecule, the heat capacity (327.07 K) was 2239000 ± 87000 J/K/m3, the heat capacity (327.41 K) was 2241000 ± 87000 J/K/m3 and the heat capacity (327.75 K) was 2240000 ± 87000 J/K/m3. For the same molecule, the heat capacity (328.09 K) was 2239000 ± 87000 J/K/m3, the heat capacity (328.43 K) was 2240000 ± 87000 J/K/m3 and the heat capacity (328.76 K) was 2240000 ± 87000 J/K/m3. For the same molecule, the heat capacity (329.1 K) was 2240000 ± 87000 J/K/m3, the heat capacity (329.44 K) was 2240000 ± 87000 J/K/m3 and the heat capacity (329.78 K) was 2240000 ± 87000 J/K/m3. For the same molecule, the heat capacity (330.12 K) was 2240000 ± 87000 J/K/m3, the heat capacity (330.46 K) was 2241000 ± 87000 J/K/m3 and the heat capacity (330.79 K) was 2241000 ± 87000 J/K/m3. For the same molecule, the heat capacity (331.13 K) was 2237000 ± 87000 J/K/m3, the heat capacity (331.47 K) was 2242000 ± 87000 J/K/m3 and the heat capacity (331.81 K) was 2239000 ± 87000 J/K/m3. For the same molecule, the heat capacity (332.15 K) was 2241000 ± 87000 J/K/m3, the heat capacity (332.48 K) was 2241000 ± 87000 J/K/m3 and the heat capacity (332.82 K) was 2240000 ± 87000 J/K/m3. The heat capacity (333.16 K) was 2239000 ± 87000 J/K/m3, the heat capacity (333.5 K) was 2240000 ± 87000 J/K/m3 and the heat capacity (333.84 K) was 2241000 ± 87000 J/K/m3. It also gave a heat capacity (334.17 K) of 2241000 ± 87000 J/K/m3, a heat capacity (334.51 K) of 2241000 ± 87000 J/K/m3 and a heat capacity (334.85 K) of 2240000 ± 87000 J/K/m3. For the same molecule, the heat capacity (335.19 K) was 2243000 ± 87000 J/K/m3, the heat capacity (335.53 K) was 2243000 ± 87000 J/K/m3 and the heat capacity (335.86 K) was 2242000 ± 87000 J/K/m3. It also gave a heat capacity (336.2 K) of 2244000 ± 87000 J/K/m3, a heat capacity (336.54 K) of 2243000 ± 87000 J/K/m3 and a heat capacity (336.88 K) of 2246000 ± 87000 J/K/m3. The heat capacity (337.22 K) was 2247000 ± 87000 J/K/m3, the heat capacity (337.56 K) was 2248000 ± 87000 J/K/m3 and the heat capacity (337.89 K) was 2251000 ± 87000 J/K/m3. The heat capacity (338.23 K) was 2251000 ± 87000 J/K/m3, the heat capacity (338.57 K) was 2254000 ± 87000 J/K/m3 and the heat capacity (338.91 K) was 2241000 ± 87000 J/K/m3.
